# Laboratory results from ChEMBL document CHEMBL3091384, “Chemical probes to study ADP-ribosylation: synthesis and biochemical evaluation of inhibitors of the human ADP-ribosyltransferase ARTD3/PARP3” (J Med Chem, 2013).
# Legend:
# [1] = biological target: T1, Protein mono-ADP-ribosyltransferase PARP3 (Homo sapiens) (UniProt Q9Y6F1)
# T1 sequence (whole entry): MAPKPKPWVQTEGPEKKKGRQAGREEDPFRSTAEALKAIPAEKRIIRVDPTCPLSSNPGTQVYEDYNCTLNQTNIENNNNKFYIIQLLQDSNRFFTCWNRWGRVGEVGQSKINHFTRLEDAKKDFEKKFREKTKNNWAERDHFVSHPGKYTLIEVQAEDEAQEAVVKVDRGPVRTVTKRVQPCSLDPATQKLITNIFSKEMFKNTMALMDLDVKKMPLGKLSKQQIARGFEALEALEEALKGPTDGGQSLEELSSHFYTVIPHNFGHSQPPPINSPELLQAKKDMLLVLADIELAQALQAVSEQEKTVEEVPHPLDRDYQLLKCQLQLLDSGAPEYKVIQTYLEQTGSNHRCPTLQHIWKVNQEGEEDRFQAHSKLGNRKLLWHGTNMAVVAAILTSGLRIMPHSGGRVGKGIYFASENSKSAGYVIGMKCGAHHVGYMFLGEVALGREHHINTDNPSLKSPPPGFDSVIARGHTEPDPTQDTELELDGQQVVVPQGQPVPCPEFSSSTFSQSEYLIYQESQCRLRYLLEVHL
# [2] = biological target: Poly [ADP-ribose] polymerase 2 (Homo sapiens) (UniProt Q9UGN5)
# Homo sapiens = species on record: Homo sapiens; assay: Binding affinity to […] (unknown origin) assessed as change in melting temperature by thermal stabilization assay
# [3] = system: Poly [ADP-ribose] polymerase 14, ARTD8/PARP14 (Homo sapiens)
# [4] = biological target: Poly [ADP-ribose] polymerase 1 (Homo sapiens, UniProt P09874)
# Chain of Poly [ADP-ribose] polymerase 1 (P09874 whole entry): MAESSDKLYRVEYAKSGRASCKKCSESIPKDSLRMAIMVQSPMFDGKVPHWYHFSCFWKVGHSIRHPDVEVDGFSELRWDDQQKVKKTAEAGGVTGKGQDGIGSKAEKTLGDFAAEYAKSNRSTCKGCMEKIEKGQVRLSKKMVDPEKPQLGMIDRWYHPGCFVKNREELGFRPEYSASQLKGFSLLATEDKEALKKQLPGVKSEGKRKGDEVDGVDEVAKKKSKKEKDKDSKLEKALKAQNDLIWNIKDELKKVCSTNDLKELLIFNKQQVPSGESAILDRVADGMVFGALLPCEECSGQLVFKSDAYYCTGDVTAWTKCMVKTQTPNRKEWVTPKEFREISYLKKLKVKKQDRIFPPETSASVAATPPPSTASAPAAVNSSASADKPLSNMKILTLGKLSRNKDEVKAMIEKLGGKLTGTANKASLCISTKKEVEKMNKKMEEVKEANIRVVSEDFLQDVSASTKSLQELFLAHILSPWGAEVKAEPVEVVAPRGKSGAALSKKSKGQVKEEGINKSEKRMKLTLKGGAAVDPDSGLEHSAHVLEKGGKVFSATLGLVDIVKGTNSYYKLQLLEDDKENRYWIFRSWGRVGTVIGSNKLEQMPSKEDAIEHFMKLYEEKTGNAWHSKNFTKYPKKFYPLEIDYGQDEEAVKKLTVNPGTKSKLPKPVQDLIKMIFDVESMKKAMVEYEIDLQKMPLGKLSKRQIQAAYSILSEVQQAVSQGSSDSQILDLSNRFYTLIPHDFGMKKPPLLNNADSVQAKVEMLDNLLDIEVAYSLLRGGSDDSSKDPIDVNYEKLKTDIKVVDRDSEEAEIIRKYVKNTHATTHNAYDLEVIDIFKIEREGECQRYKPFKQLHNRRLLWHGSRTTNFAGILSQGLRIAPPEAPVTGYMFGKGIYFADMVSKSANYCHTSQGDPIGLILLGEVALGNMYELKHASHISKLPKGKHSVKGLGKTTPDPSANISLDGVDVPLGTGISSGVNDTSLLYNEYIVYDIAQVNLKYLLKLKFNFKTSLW
# Chain of Poly [ADP-ribose] polymerase 2 (Homo sapiens) (Q9UGN5 whole entry): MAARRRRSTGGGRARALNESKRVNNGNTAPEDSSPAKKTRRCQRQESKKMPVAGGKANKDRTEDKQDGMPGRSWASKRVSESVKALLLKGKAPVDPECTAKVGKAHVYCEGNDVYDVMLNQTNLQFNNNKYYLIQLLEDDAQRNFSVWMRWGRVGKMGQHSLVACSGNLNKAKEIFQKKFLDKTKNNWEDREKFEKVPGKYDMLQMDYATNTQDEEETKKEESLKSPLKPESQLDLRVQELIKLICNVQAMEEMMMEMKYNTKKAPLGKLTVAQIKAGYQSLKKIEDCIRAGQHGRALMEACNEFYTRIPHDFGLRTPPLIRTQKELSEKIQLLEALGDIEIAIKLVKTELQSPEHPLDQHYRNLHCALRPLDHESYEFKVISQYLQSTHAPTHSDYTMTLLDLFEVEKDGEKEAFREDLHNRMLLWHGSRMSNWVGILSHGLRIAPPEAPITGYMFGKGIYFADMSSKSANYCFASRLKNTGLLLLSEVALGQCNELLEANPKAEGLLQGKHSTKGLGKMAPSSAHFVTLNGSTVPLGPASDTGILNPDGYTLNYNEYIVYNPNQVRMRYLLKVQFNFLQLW
structure (smiles),measurement,setting,value
O=C(CCc1nc2ccccc2c(=O)[nH]1)NCc1ccccc1Cl,ΔTm,[1],5.39 °C
same,ΔTm,[2],1.64 °C
same,ΔTm,Homo sapiens,0.48 °C
same,ΔTm,[3],0.26 °C
same,ΔTm,[4],1.85 °C
O=C(CCc1nc2ccccc2c(=O)[nH]1)NCCc1ccccc1,ΔTm,[1],6.23 °C
same,ΔTm,[2],1.57 °C
same,ΔTm,Homo sapiens,0.49 °C
same,ΔTm,[3],0.2 °C
same,ΔTm,[4],2.83 °C
C[C@H](NC(=O)CCc1nc2ccccc2c(=O)[nH]1)c1ccccn1,ΔTm,Homo sapiens,0.13 °C
CON(C)C(=O)[C@H](Cc1ccccc1)NC(=O)CCc1nc2ccccc2c(=O)[nH]1,ΔTm,[1],5.94 °C
same,ΔTm,[2],0.33 °C
same,ΔTm,Homo sapiens,0.11 °C
same,ΔTm,[3],0.32 °C
same,ΔTm,[4],1.37 °C
O=C(CCc1nc2ccccc2c(=O)[nH]1)NC1CCCc2ccccc21 (stereo unspecified),ΔTm,[1],2.28 °C
same,ΔTm,[2],1.11 °C
same,ΔTm,Homo sapiens,1.83 °C
same,ΔTm,[3],0.24 °C
same,ΔTm,[4],2.44 °C
O=C(CCc1nc2cc(Cl)ccc2c(=O)[nH]1)NC(c1ccccc1)c1ccccc1,ΔTm,[1],0.35 °C
same,ΔTm,[2],0.83 °C
same,ΔTm,Homo sapiens,0.2 °C
same,ΔTm,[3],0.82 °C
same,ΔTm,[4],0.11 °C
C[C@@H](CO)NC(=O)CCc1nc2ccccc2c(=O)[nH]1,ΔTm,Homo sapiens,0.56 °C
C[C@@H](NC(=O)CCc1nc2ccccc2c(=O)[nH]1)c1ccccn1,ΔTm,Homo sapiens,0.12 °C
C[C@H](NC(=O)/C=C/c1nc2ccccc2c(=O)[nH]1)c1ccccc1,ΔTm,[1],0.22 °C
same,ΔTm,[2],-0.67 °C
same,ΔTm,Homo sapiens,0.42 °C
same,ΔTm,[3],-0.07 °C
same,ΔTm,[4],1.22 °C
O=C(CCc1nc2ccccc2c(=O)[nH]1)NC(c1ccc(Cl)cc1)C1CC1 (racemic),ΔTm,[1],0.45 °C
same,ΔTm,[2],0.77 °C
same,ΔTm,Homo sapiens,0.52 °C
same,ΔTm,[3],-0.28 °C
same,ΔTm,[4],2.17 °C
O=C(NCc1ccccc1)NCc1nc2ccccc2c(=O)[nH]1,ΔTm,[1],2.91 °C
same,ΔTm,[2],-0.23 °C
same,ΔTm,Homo sapiens,0.34 °C
same,ΔTm,[3],-1.05 °C
same,ΔTm,[4],0.65 °C
O=C(CCc1nc2ccccc2c(=O)[nH]1)NCc1ccc(OC(F)F)cc1,ΔTm,[1],0.78 °C
same,ΔTm,[2],1.35 °C
same,ΔTm,Homo sapiens,0.96 °C
same,ΔTm,[3],0.31 °C
same,ΔTm,[4],3.39 °C
C[C@H](NC(=O)Cc1nc2ccccc2c(=O)[nH]1)c1ccccc1,ΔTm,[1],0.43 °C
same,ΔTm,[2],-0.01 °C
same,ΔTm,Homo sapiens,0.01 °C
same,ΔTm,[3],0.04 °C
same,ΔTm,[4],0.31 °C
CC(NC(=O)CCc1nc2ccccc2c(=O)[nH]1)c1ccc(S(N)(=O)=O)cc1 (racemic),ΔTm,Homo sapiens,1.94 °C
CC(NC(=O)CCc1nc2ccccc2c(=O)[nH]1)c1ccccn1 (racemic),ΔTm,Homo sapiens,0 °C
C[C@@H](NC(=O)CCCc1nc2ccccc2c(=O)[nH]1)c1ccccc1,ΔTm,[1],4.27 °C
same,ΔTm,[2],0.21 °C
same,ΔTm,Homo sapiens,1.37 °C
same,ΔTm,[3],-0.05 °C
same,ΔTm,[4],1.56 °C
CC(C)(C)CC(NC(=O)CCc1nc2ccccc2c(=O)[nH]1)c1ccccc1 (racemic),ΔTm,[1],5.96 °C
same,ΔTm,[2],0.74 °C
same,ΔTm,Homo sapiens,0.44 °C
same,ΔTm,[3],0.16 °C
same,ΔTm,[4],0.9 °C
CC[C@@H](CO)NC(=O)CCc1nc2ccccc2c(=O)[nH]1,ΔTm,Homo sapiens,0.35 °C
C[C@@H](NC(=O)CCc1nc2cc(Cl)ccc2c(=O)[nH]1)c1ccccc1,ΔTm,[1],0.16 °C
same,ΔTm,[2],1.28 °C
same,ΔTm,Homo sapiens,0.43 °C
same,ΔTm,[3],0.05 °C
same,ΔTm,[4],0.92 °C
C[C@H](NC(=O)CCc1nc2ccccc2c(=O)[nH]1)c1cccc(Cl)c1,ΔTm,[1],0.2 °C
same,ΔTm,[2],-0.48 °C
same,ΔTm,Homo sapiens,0.29 °C
same,ΔTm,[3],-0.1 °C
same,ΔTm,[4],0.26 °C
COc1ccccc1CNC(=O)CCc1nc(O)c2ccccc2n1,ΔTm,[1],2.96 °C
same,ΔTm,[2],1.14 °C
same,ΔTm,Homo sapiens,0.54 °C
same,ΔTm,[4],1.45 °C
Cc1ccc([C@H](C)NC(=O)CCc2nc3ccccc3c(=O)[nH]2)cc1C,ΔTm,[1],0.74 °C
same,ΔTm,[2],-0.47 °C
same,ΔTm,Homo sapiens,0.22 °C
same,ΔTm,[3],-0.22 °C
same,ΔTm,[4],0.22 °C
O=C(CCc1nc2ccccc2c(=O)[nH]1)N[C@H](CO)c1ccccc1,ΔTm,[1],3.57 °C
same,ΔTm,[2],1.64 °C
same,ΔTm,Homo sapiens,0.82 °C
same,ΔTm,[3],0.38 °C
same,ΔTm,[4],2.83 °C
O=C(CCc1nc2ccccc2c(=O)[nH]1)NCc1ccc([N+](=O)[O-])cc1,ΔTm,[1],3.29 °C
same,ΔTm,[2],0.53 °C
same,ΔTm,Homo sapiens,0.97 °C
same,ΔTm,[3],-0.11 °C
same,ΔTm,[4],4 °C
O=C(CCc1nc2ccccc2c(=O)[nH]1)NC(c1ccccc1)c1ccccc1,ΔTm,[1],0.2 °C
same,ΔTm,[2],0.3 °C
same,ΔTm,Homo sapiens,0.22 °C
same,ΔTm,[3],0.45 °C
same,ΔTm,[4],0.2 °C
CC(NC(=O)CCc1nc2ccccc2c(=O)[nH]1)c1ccncc1 (racemic),ΔTm,[1],5.02 °C
same,ΔTm,[2],1.82 °C
same,ΔTm,Homo sapiens,0.3 °C
same,ΔTm,[3],0 °C
same,ΔTm,[4],2.68 °C
O=C(CCc1nc2ccccc2c(=O)[nH]1)N1CCc2ccccc2C1,ΔTm,[1],4.73 °C
same,ΔTm,[2],-0.17 °C
same,ΔTm,Homo sapiens,0.14 °C
same,ΔTm,[3],-0.07 °C
same,ΔTm,[4],1.15 °C
O=C(/C=C/c1nc2ccccc2c(=O)[nH]1)N[C@H](CO)Cc1ccccc1,ΔTm,[1],6.25 °C
same,ΔTm,[2],-0.17 °C
same,ΔTm,Homo sapiens,0.08 °C
same,ΔTm,[3],-0.7 °C
same,ΔTm,[4],0.41 °C
C[C@H](NC(=O)CCc1nc2ccccc2c(=O)[nH]1)c1ccccc1F,ΔTm,[1],0.42 °C
same,ΔTm,[2],-0.46 °C
same,ΔTm,Homo sapiens,0.12 °C
same,ΔTm,[3],0.12 °C
same,ΔTm,[4],0.36 °C
C[C@H](NC(=O)CCc1nc2ccccc2c(=O)[nH]1)c1cccc(C(F)(F)F)c1,ΔTm,[1],0.69 °C
same,ΔTm,[2],-0.6 °C
same,ΔTm,Homo sapiens,0.23 °C
same,ΔTm,[3],-0.37 °C
same,ΔTm,[4],0.25 °C
C[C@@H](NC(=O)CCc1nc2ccccc2c(=O)[nH]1)c1ccccc1,ΔTm,Homo sapiens,0.35 °C
CC[C@H](NC(=O)CCc1nc2ccccc2c(=O)[nH]1)c1ccccc1,ΔTm,Homo sapiens,0.33 °C
NC(=O)[C@H](Cc1ccccc1)NC(=O)CCc1nc2ccccc2c(=O)[nH]1,ΔTm,Homo sapiens,1.08 °C
O=C(CCc1nc2ccccc2c(=O)[nH]1)N[C@@H](Cc1ccccc1)C(=O)O,ΔTm,[1],1.36 °C
same,ΔTm,[2],-0.32 °C
same,ΔTm,Homo sapiens,0.22 °C
same,ΔTm,[3],-0.37 °C
same,ΔTm,[4],0.24 °C
O=C(CCc1nc2ccccc2c(=O)[nH]1)NCc1ccccc1,ΔTm,[1],2.63 °C
same,ΔTm,[2],1.77 °C
same,ΔTm,Homo sapiens,0.32 °C
same,ΔTm,[3],-0.28 °C
same,ΔTm,[4],2.16 °C
Cc1ccc(C)c(C(C)NC(=O)CCc2nc3ccccc3c(=O)[nH]2)c1 (racemic),ΔTm,[1],3.07 °C
same,ΔTm,[2],0.87 °C
same,ΔTm,Homo sapiens,0.44 °C
same,ΔTm,[3],0.57 °C
same,ΔTm,[4],2 °C
O=C(CCCc1nc2ccccc2c(=O)[nH]1)N[C@@H]1CCc2ccccc21,ΔTm,[1],3.46 °C
same,ΔTm,[2],2.29 °C
same,ΔTm,Homo sapiens,1.2 °C
same,ΔTm,[3],0.13 °C
same,ΔTm,[4],1.52 °C
O=C(CCc1nc2ccccc2c(=O)[nH]1)NCc1ccc(F)cc1,ΔTm,[1],4.2 °C
same,ΔTm,[2],1.37 °C
same,ΔTm,Homo sapiens,0.69 °C
same,ΔTm,[3],0.69 °C
same,ΔTm,[4],3.11 °C
O=C(CCCc1nc2ccccc2c(=O)[nH]1)N[C@H](CO)c1ccccc1,ΔTm,[1],3.22 °C
same,ΔTm,[2],1.84 °C
same,ΔTm,Homo sapiens,1.05 °C
same,ΔTm,[3],0.53 °C
same,ΔTm,[4],2.9 °C
C[C@H](NC(=O)CCCc1nc2ccccc2c(=O)[nH]1)c1ccccc1,ΔTm,[1],4.58 °C
same,ΔTm,[2],0.37 °C
same,ΔTm,Homo sapiens,0.52 °C
same,ΔTm,[3],-0.21 °C
same,ΔTm,[4],1.51 °C
C[C@H](NC(=O)CCc1nc2ccccc2c(=O)[nH]1)c1ccccc1,ΔTm,Homo sapiens,0.13 °C
O=C(CCc1nc2ccccc2c(=O)[nH]1)N[C@H](CO)Cc1ccccc1,ΔTm,Homo sapiens,0.6 °C
O=C(CCc1nc(O)c2ccccc2n1)NCc1ccccn1,ΔTm,[1],4.83 °C
same,ΔTm,[2],1.48 °C
same,ΔTm,Homo sapiens,0.15 °C
same,ΔTm,[4],1.93 °C
CC(NC(=O)CCc1nc2ccccc2c(=O)[nH]1)c1ccc(-n2ccnc2)cc1 (racemic),ΔTm,Homo sapiens,0.64 °C
COC(=O)[C@H](Cc1ccccc1)NC(=O)CCc1nc2ccccc2c(=O)[nH]1,ΔTm,Homo sapiens,0.5 °C
